The NIST ThermoML archive (doi:10.1021/je0301794)
“And” between values parts separate entries of the source, which are not always exact repeats. Equal entries are not always repeated. Numbers after ± are expanded uncertainties.

Assays:
[1] = Liquid; for mass density: 101.3 kPa; for Normal boiling temperature: Closed cell (Static) method
[2] = excess molar enthalpy (molar enthalpy of mixing); xn = mol fraction of the nth substance listed; conditions: 318.15 K, 101.3 kPa, Liquid
[3] = xn = mol fraction of the nth substance listed; conditions: 101.3 kPa, Liquid

SMILES | mass density ([1]; 298.15 K) [kg/m3] | mass density ([1]; 303.15 K) | mass density ([1]; 313.15 K) [kg/m3] | mass density ([1]; 318.15 K) [kg/m3] | Normal boiling temperature [1] [°C] | mass density ([1]; 293.15 K) [kg/m3] | also measured
CCCCCCCCCC [decane] | 726.2 ± 0.5 | 722.3 ± 0.5 kg/m3 | 714.7 ± 0.5 | 710.9 ± 0.5 | 173.8 ± 0.2 | – | –
COC(=O)OC [dimethyl carbonate] | 1063.5 ± 0.6 | 1056.5 ± 0.6 kg/m3 and 1056.6 ± 0.6 kg/m3 | 1043.4 ± 0.5 | 1036.9 ± 0.5 | 90.31 ± 0.2 | 1070 ± 0.6 | –
COC(=O)OC [dimethyl carbonate] + CCCCCCCCC | – | – | – | – | – | – | excess molar enthalpy ([2]; x1 = 1): 0 ± 0.000478 kcal/mol; mass density ([3]; 293.15 K, x1 = 1): 1070 ± 0.6 kg/m3; mass density ([3]; 298.15 K, x1 = 1): 1063.5 ± 0.6 kg/m3; mass density ([3]; 303.15 K, x1 = 1): 1056.6 ± 0.6 kg/m3; mass density ([3]; 313.15 K, x1 = 1): 1043.4 ± 0.5 kg/m3; mass density ([3]; 318.15 K, x1 = 1): 1036.9 ± 0.5 kg/m3
COC(=O)OC [dimethyl carbonate] + CCCCCCCCCC | – | – | – | – | – | – | excess molar enthalpy ([2]; x1 = 1): 0 ± 0.000478 kcal/mol; mass density ([3]; 298.15 K, x1 = 1): 1063.5 ± 0.6 kg/m3; mass density ([3]; 303.15 K, x1 = 1): 1056.6 ± 0.6 kg/m3; mass density ([3]; 313.15 K, x1 = 1): 1043.4 ± 0.5 kg/m3; mass density ([3]; 318.15 K, x1 = 1): 1036.9 ± 0.5 kg/m3
CCCCCCC [heptane] | 679.4 ± 0.5 | 675.3 ± 0.5 kg/m3 | 666.6 ± 0.5 | 661.5 ± 0.5 | 98.03 ± 0.2 | 683.6 ± 0.5 | –
CCCCCCC [heptane] + COC(=O)OC | – | – | – | – | – | – | excess molar enthalpy ([2]; x2 = 0): 0 ± 0.000478 kcal/mol; mass density ([3]; 293.15 K, x2 = 0): 683.6 ± 0.5 kg/m3; mass density ([3]; 298.15 K, x2 = 0): 679.4 ± 0.5 kg/m3; mass density ([3]; 303.15 K, x2 = 0): 675.3 ± 0.5 kg/m3; mass density ([3]; 313.15 K, x2 = 0): 666.6 ± 0.5 kg/m3; mass density ([3]; 318.15 K, x2 = 0): 661.5 ± 0.5 kg/m3
CCCCCC [hexane] | 654.8 ± 0.5 | 650.4 ± 0.5 kg/m3 | 641.1 ± 0.6 | 636.4 ± 0.6 | 68.78 ± 0.2 | 659.3 ± 0.5 | –
CCCCCC [hexane] + COC(=O)OC | – | – | – | – | – | – | excess molar enthalpy ([2]; x2 = 0): 0 ± 0.000478 kcal/mol; mass density ([3]; 293.15 K, x2 = 0): 659.3 ± 0.5 kg/m3; mass density ([3]; 298.15 K, x2 = 0): 654.8 ± 0.5 kg/m3; mass density ([3]; 303.15 K, x2 = 0): 650.4 ± 0.5 kg/m3; mass density ([3]; 313.15 K, x2 = 0): 641.1 ± 0.6 kg/m3; mass density ([3]; 318.15 K, x2 = 0): 636.4 ± 0.6 kg/m3
CCCCCCCCC [nonane] | 713.9 ± 0.5 | 710.1 ± 0.5 kg/m3 | 702.2 ± 0.5 | 698.1 ± 0.5 | 150.51 ± 0.2 | 717.7 ± 0.5 | –
CCCCCCCC [octane] | 698.5 ± 0.5 | 694.5 ± 0.5 kg/m3 | 686.3 ± 0.5 | 682.1 ± 0.5 | 125.50 ± 0.2 | 702.5 ± 0.5 | –
CCCCCCCC [octane] + COC(=O)OC | – | – | – | – | – | – | excess molar enthalpy ([2]; x2 = 0): 0 ± 0.000478 kcal/mol; mass density ([3]; 293.15 K, x2 = 0): 702.5 ± 0.5 kg/m3; mass density ([3]; 298.15 K, x2 = 0): 698.5 ± 0.5 kg/m3; mass density ([3]; 303.15 K, x2 = 0): 694.5 ± 0.5 kg/m3; mass density ([3]; 313.15 K, x2 = 0): 686.3 ± 0.5 kg/m3; mass density ([3]; 318.15 K, x2 = 0): 682.1 ± 0.5 kg/m3
